The source of these data is US6864249B2, “Piperidine and azetidine thrombin inhibitors” (LG Life Sciences, Ltd., priority 1998, dated 2005).

The structures appear in SMILES notation. Where a name gives a salt, the structure may show the parent alone.

The experiment concerns the target T1, Thrombin prepared from human plasma (Homo sapiens, UniProt P00734).
T1 construct: Thrombin used in this test was prepared from human plasma; from tissue; host or cells: human plasma
Nature of the experiment: In vitro enzyme assay for thrombin inhibition constants (Chromozym TH substrate, Dixon plot). The settings on record: pH 7.8, room temperature. It is filed as biochemical. As to the method:
In vitro Enzyme Assays for Determining Inhibition Constants
The activity of thrombin was measured spectrophotometrically using tosyl-Gly-Pro-Arg-p-nitroanilide acetate (Chromozym TH, Boehringer Mannheim) as a substrate. […] Each compound was dissolved in DMSO to make a 1 mM stock solution and dilutions were made thereof with assay buffer (0.1 M Tris HCl, 0.15 M NaCl, 0.1% polyethylene glycol 8000, pH 7.8). Different concentrations of inhibitor were mixed with […] of thrombin in 0.8 mL of the buffer. The mixture was incubated for 10 min at room temperature before adding 0.2 mL of the substrate to a final concentration of 20 μM. […] A graph for the reciprocal value of initial velocity to the inhibitor concentration was derived from progress curves by fitting the data using a linear regression program.
On to `NCc1ccc(CNC(=O)[C@@H]2CCCN2C(=O)[C@H](NS(N)(=O)=O)C(c2ccccc2)c2ccccc2)s1` [Example 2, N-aminosulfonyl-D-diphenylalanyl-L-prolyl-[(5-aminomethyl-2-thienyl)methyl]amide.HCl], for which the Ki (as a rule, a measure of affinity in units of concentration, obtained from inhibition or displacement) was found to be 4.7 nM.

The compound `CS(=O)(=O)N[C@@H](C(=O)N1CCC[C@H]1C(=O)NCc1ccc(/C(N)=N/N)s1)C(c1ccccc1)c1ccccc1` [Example 4, N-methylsulfonyl-D-diphenylalanyl-L-prolyl-[(5-amidrazono-2-thienyl)methyl]amide.TFA] had a Ki of 0.53 nM.

For the compound `N=C(N)c1ccc(CNC(=O)[C@@H]2CCCN2C(=O)[C@H](NS(=O)(=O)Cc2ccccc2)C(c2ccccc2)c2ccccc2)s1` [Example 6, N-benzylsulfonyl-D-diphenylalanyl-L-prolyl-[(5-amidino-2-thienyl)methyl]amide.TFA], the inhibition constant (Ki) is 0.021 nM.

`CC(C)(C)OC(=O)N[C@@H](C(=O)N1CCC[C@H]1C(=O)NCc1ccc(C(=N)N)s1)C(c1ccccc1)c1ccccc1` [Example 7, N-t-butoxycarbonyl-D-diphenylalanyl-L-prolyl-[(5-amidino-2-thienyl)methyl]amide.TFA] displayed an inhibition constant (Ki) of 0.007 nM.

`N=C(N)c1ccc(CNC(=O)[C@@H]2CCCN2C(=O)[C@@H](Cc2ccc(Cl)c(Cl)c2)NS(N)(=O)=O)s1` [Example 9, N-aminosulfonyl-D-3,4-dichlorophenylalanyl-L-prolyl-[(5-amidino-2-thienyl)methyl]amide.TFA] showed a Ki of 0.065 nM.

As to `COC(=O)N[C@@H](C(=O)N1CCC[C@H]1C(=O)NCc1ccc(C(=N)N)s1)C(C1CCCCC1)C1CCCCC1` [Example 10, N-methoxycarbonyl-D-dicyclohexylalanyl-L-prolyl-[(5-amidino-2-thienyl)methyl]amide.TFA], the Ki was 0.052 nM.

Consider `CS(=O)(=O)N[C@@H](C(=O)N1CCC[C@H]1C(=O)NCc1cc(C(=N)N)cs1)C(c1ccccc1)c1ccccc1` [Example 12, N-methylsulfonyl-D-diphenylalanyl-L-prolyl-[(4-amidino-2-thienyl)methyl]amide.TFA], for which the Ki worked out at 0.04 nM.

As for `CS(=O)(=O)N[C@@H](C(=O)N1CCC[C@H]1C(=O)NCc1cc(CN)cs1)C(c1ccccc1)c1ccccc1` [Example 13, N-methylsulfonyl-D-diphenylalanyl-L-prolyl-[(4-aminomethyl-2-thienyl)methyl]amide.HCl], the inhibitory constant (Ki) came out at 0.073 nM.

The compound `CS(=O)(=O)N[C@@H](C(=O)N1CCC[C@H]1C(=O)NCc1csc(C(=N)N)c1)C(c1ccccc1)c1ccccc1` [Example 16, N-methylsulfonyl-D-diphenylalanyl-L-prolyl-[(5-amidino-3-thienyl)methyl]amide.TFA] showed an inhibition constant Ki of 0.045 nM.

`CS(=O)(=O)N[C@@H](C(=O)N1CCC[C@H]1C(=O)NCc1csc(C(=N)NN)c1)C(c1ccccc1)c1ccccc1` [Example 17, N-methylsulfonyl-D-diphenylalanyl-L-prolyl-[(5-amidrazono-3-thienyl)methyl]amide.TFA] had a Ki of 0.41 nM.

`CS(=O)(=O)N[C@@H](C(=O)N1CCC[C@H]1C(=O)NCc1csc(CN)c1)C(c1ccccc1)c1ccccc1` [Example 18, N-methylsulfonyl-D-diphenylalanyl-L-prolyl-[(5-aminomethyl-3-thienyl)methyl]amide.TFA] displayed a Ki of 6.21 nM.

On to `N=C(N)c1ccc(CNC(=O)[C@@H]2CCCN2C(=O)[C@H](NS(=O)(=O)NC2CCCCC2)C(c2ccccc2)c2ccccc2)s1` [Example 20, N-cyclohexylsulfamoyl-D-diphenylalanyl-L-prolyl-[(5-amidino-2-thienyl)methyl]amide.TFA], for which the Ki came out at 0.011 nM.

Consider `C=CCOC(=O)N[C@@H](C(=O)N1CCC[C@H]1C(=O)NCc1ccc(C(=N)N)s1)C(c1ccccc1)c1ccccc1` [Example 21, N-allyloxycarbonyl-D-diphenylalanyl-L-prolyl-[(5-amidino-2-thienyl)methyl]amide.TFA], for which the Ki was 0.017 nM.
